# Source: US12295936B2, “Immunomodulating urea azalides” (Zoetis Services LLC, priority 2020, dated 2025)
# Read-outs that look alike come from different tables or passages of the source.
# Columns and labels:
# Test in all cases: LPS-stimulated whole bovine blood assay, MSD cytokine detection
# Format in all cases: cell-based
# TNF-α = settings: read-out: TNF-α (IC50 μM)
# IL-1β = settings: overstimulation of IL-1β, LPS-stimulated bovine whole blood
# IL-6 = settings: read-out: IL-6 (IC50 μM)
# Description: In order to correlate RNA sequencing data to cytokine changes the whole blood assay was utilized. […] The enhancement result represents an overall stimulation of cytokine levels due to cellular stress or potential toxicity with increasing concentrations of the compound, representing a typical bell shape response curve for immunomodulatory activity.
# [1] = Bos taurus, LPS-stimulated bovine whole blood
# [2] = LPS-stimulated bovine whole blood
Compound,IC50 (TNF-α; [1]) [µM],IL-1β OS of LPS (IL-1β) [µM],IC50 (IL-6; [1]) [µM],IC50 (TNF-α; Bos taurus) [µM],IC50 (IL-6; Bos taurus) [µM],IC50 (TNF-α; [2]) [µM],IC50 (IL-6; [2]) [µM]
"CC[C@H]1OC(=O)[C@H](C)[C@@H](O[C@H]2C[C@@](C)(OC)[C@](O)(CN)[C@H](C)O2)[C@H](C)[C@@H](O[C@@H]2O[C@H](C)C[C@H](N(C)C(=O)N(C)c3ccccc3)[C@H]2O)[C@](C)(O)C[C@@H](C)CN[C@H](C)[C@@H](O)[C@]1(C)O [Example H-66, 1-((2S,3R,4S,6R)-2-(((2R,3S,4R,5R,8R,10R,11R,12S,13S,14R)-13-(((2R,4R,5S,6S)-5-(aminomethyl)-5-hydroxy-4-methoxy-4,6-dimethyltetrahydro-2H-pyran-2-yl)oxy)-2-ethyl-3,4,10-trihydroxy-3,5,8,10,12,14-hexamethyl-15-oxo-1-oxa-6-azacyclopentadecan-11-yl)oxy)-3-hydroxy-6-methyltetrahydro-2H-pyran-4-yl)-1,3-dimethyl-3-phenylurea]",106,250,> 250,–,–,–,–
"CC[C@H]1OC(=O)[C@H](C)[C@@H](O[C@H]2C[C@@](C)(OC)[C@](O)(Cn3cnnn3)[C@H](C)O2)[C@H](C)[C@@H](O[C@@H]2O[C@H](C)C[C@H](N(C)C(=O)N(C)c3ccccc3)[C@H]2O)[C@](C)(O)C[C@@H](C)CN[C@H](C)[C@@H](O)[C@]1(C)O [Example J-29, 1-((2S,3R,4S,6R)-2-(((2R,3S,4R,5R,8R,10R,11R,12S,13S,14R)-13-(((2R,4R,5S,6S)-5-((1H-tetrazol-1-yl)methyl)-5-hydroxy-4-methoxy-4,6-dimethyltetrahydro-2H-pyran-2-yl)oxy)-2-ethyl-3,4,10-trihydroxy-3,5,8,10,12,14-hexamethyl-15-oxo-1-oxa-6-azacyclopentadecan-11-yl)oxy)-3-hydroxy-6-methyltetrahydro-2H-pyran-4-yl)-1,3-dimethyl-3-phenylurea]",–,40,–,19,56,–,–
"3-ethyl-1-((2S,3R,4S,6R)-2-(((2R,3S,4R,5R,8R,10R,11R,12S,13S,14R)-2-ethyl-3,4,10-trihydroxy-13-(((2R,4R,5S,6S)-5-hydroxy-4-methoxy-4,6-dimethyl-5-((4-methylpiperazin-1-yl)methyl)tetrahydro-2H-pyran-2-yl)oxy)-3,5,8,10,12,14-hexamethyl-15-oxo-1-oxa-6-azacyclopentadecan-11-yl)oxy)-3-hydroxy-6-methyltetrahydro-2H-pyran-4-yl)-1-methylurea [Example J-9]",–,>500,–,–,–,> 500,> 500
"CC[C@H]1OC(=O)[C@H](C)[C@@H](O[C@H]2C[C@@](C)(OC)[C@](O)(CNCCOC)[C@H](C)O2)[C@H](C)[C@@H](O[C@@H]2O[C@H](C)C[C@H](N(C)C(=O)N(C)c3ccccc3)[C@H]2O)[C@](C)(O)C[C@@H](C)CN[C@H](C)[C@@H](O)[C@]1(C)O [Example H-18, 1-((2S,3R,4S,6R)-2-(((2R,3S,4R,5R,8R,10R,11R,12S,13S,14R)-2-ethyl-3,4,10-trihydroxy-13-(((2R,4R,5S,6S)-5-hydroxy-4-methoxy-5-(((2-methoxyethyl)amino)methyl)-4,6-dimethyltetrahydro-2H-pyran-2-yl)oxy)-3,5,8,10,12,14-hexamethyl-15-oxo-1-oxa-6-azacyclopentadecan-11-yl)oxy)-3-hydroxy-6-methyltetrahydro-2H-pyran-4-yl)-1,3-dimethyl-3-phenylurea]",24,40,165,–,–,–,–
"CCCN(C[C@]1(O)[C@H](C)O[C@@H](O[C@H]2[C@H](C)[C@@H](O[C@@H]3O[C@H](C)C[C@H](N(C)C(N)=O)[C@H]3O)[C@](C)(O)C[C@@H](C)CN[C@H](C)[C@@H](O)[C@](C)(O)[C@@H](CC)OC(=O)[C@@H]2C)C[C@@]1(C)OC)C(N)=O [Example H-22, 1-((2S,3R,4S,6R)-2-(((2R,3S,4R,5R,8R,10R,11R,12S,13S,14R)-2-ethyl-3,4,10-trihydroxy-13-(((2R,4R,5S,6S)-5-hydroxy-4-methoxy-4,6-dimethyl-5-((1-propylureido)methyl)tetrahydro-2H-pyran-2-yl)oxy)-3,5,8,10,12,14-hexamethyl-15-oxo-1-oxa-6-azacyclopentadecan-11-yl)oxy)-3-hydroxy-6-methyltetrahydro-2H-pyran-4-yl)-1-methylurea]",> 500,>500,> 500,–,–,–,–
"CC[C@H]1OC(=O)[C@H](C)[C@@H](O[C@H]2C[C@@](C)(OC)[C@@H](O)[C@H](C)O2)[C@H](C)[C@@H](O[C@@H]2O[C@H](C)C[C@H](N(C)C(=O)N(C)c3ccccc3)[C@H]2O)[C@](C)(O)C[C@@H](C)CN[C@H](C)[C@@H](O)[C@]1(C)O [Example B-3, 1-((2S,3R,4S,6R)-2-(((2R,3S,4R,5R,8R,10R,11R,12S,13S,14R)-2-ethyl-3,4,10-trihydroxy-13-(((2R,4R,5S,6S)-5-hydroxy-4-methoxy-4,6-dimethyltetrahydro-2H-pyran-2-yl)oxy)-3,5,8,10,12,14-hexamethyl-15-oxo-1-oxa-6-azacyclopentadecan-11-yl)oxy)-3-hydroxy-6-methyltetrahydro-2H-pyran-4-yl)-1,3-dimethyl-3-phenylurea]",37,40,65,–,–,–,–
"CCCNC[C@]1(O)[C@H](C)O[C@@H](O[C@H]2[C@H](C)[C@@H](O[C@@H]3O[C@H](C)C[C@H](N(C)C(=O)N4Cc5ccccc5C4)[C@H]3O)[C@](C)(O)C[C@@H](C)CN[C@H](C)[C@@H](O)[C@](C)(O)[C@@H](CC)OC(=O)[C@@H]2C)C[C@@]1(C)OC [Example I-7, N-((2S,3R,4S,6R)-2-(((2R,3S,4R,5R,8R,10R,11R,12S,13S,14R)-2-ethyl-3,4,10-trihydroxy-13-(((2R,4R,5S,6S)-5-hydroxy-4-methoxy-4,6-dimethyl-5-((propylamino)methyl)tetrahydro-2H-pyran-2-yl)oxy)-3,5,8,10,12,14-hexamethyl-15-oxo-1-oxa-6-azacyclopentadecan-11-yl)oxy)-3-hydroxy-6-methyltetrahydro-2H-pyran-4-yl)-N-methylisoindoline-2-carboxamide]",8,6,16,–,–,–,–
"CC[C@H]1OC(=O)[C@H](C)[C@@H](O[C@H]2C[C@@](C)(OC)[C@](O)(CNCCCOC)[C@H](C)O2)[C@H](C)[C@@H](O[C@@H]2O[C@H](C)C[C@H](N(C)C(=O)N(C)c3ccccc3)[C@H]2O)[C@](C)(O)C[C@@H](C)CN[C@H](C)[C@@H](O)[C@]1(C)O [Example H-19, 1-((2S,3R,4S,6R)-2-(((2R,3S,4R,5R,8R,10R,11R,12S,13S,14R)-2-ethyl-3,4,10-trihydroxy-13-(((2R,4R,5S,6S)-5-hydroxy-4-methoxy-5-(((3-methoxypropyl)amino)methyl)-4,6-dimethyltetrahydro-2H-pyran-2-yl)oxy)-3,5,8,10,12,14-hexamethyl-15-oxo-1-oxa-6-azacyclopentadecan-11-yl)oxy)-3-hydroxy-6-methyltetrahydro-2H-pyran-4-yl)-1,3-dimethyl-3-phenylurea]",70,100,181,–,–,–,–
"CC[C@H]1OC(=O)[C@H](C)[C@@H](O[C@H]2C[C@@](C)(OC)[C@](O)(CNC)[C@H](C)O2)[C@H](C)[C@@H](O[C@@H]2O[C@H](C)C[C@H](N(C)C(=O)N(C)c3ccccc3)[C@H]2O)[C@](C)(O)C[C@@H](C)CN[C@H](C)[C@@H](O)[C@]1(C)O [Example H-26, 1-((2S,3R,4S,6R)-2-(((2R,3S,4R,5R,8R,10R,11R,12S,13S,14R)-2-ethyl-3,4,10-trihydroxy-13-(((2R,4R,5S,6S)-5-hydroxy-4-methoxy-4,6-dimethyl-5-((methylamino)methyl)tetrahydro-2H-pyran-2-yl)oxy)-3,5,8,10,12,14-hexamethyl-15-oxo-1-oxa-6-azacyclopentadecan-11-yl)oxy)-3-hydroxy-6-methyltetrahydro-2H-pyran-4-yl)-1,3-dimethyl-3-phenylurea]",30,250,> 250,–,–,–,–
"CC[C@H]1OC(=O)[C@H](C)[C@@H](O[C@H]2C[C@@](C)(OC)[C@](O)(CN3CC(N(C)C)C3)[C@H](C)O2)[C@H](C)[C@@H](O[C@@H]2O[C@H](C)C[C@H](N(C)C(=O)N(C)c3ccccc3)[C@H]2O)[C@](C)(O)C[C@@H](C)CN[C@H](C)[C@@H](O)[C@]1(C)O [Example J-26, 1-((2S,3R,4S,6R)-2-(((2R,3S,4R,5R,8R,10R,11R,12S,13S,14R)-13-(((2R,4R,5S,6S)-5-((3-(dimethylamino)azetidin-1-yl)methyl)-5-hydroxy-4-methoxy-4,6-dimethyltetrahydro-2H-pyran-2-yl)oxy)-2-ethyl-3,4,10-trihydroxy-3,5,8,10,12,14-hexamethyl-15-oxo-1-oxa-6-azacyclopentadecan-11-yl)oxy)-3-hydroxy-6-methyltetrahydro-2H-pyran-4-yl)-1,3-dimethyl-3-phenylurea]",122,100,> 250,–,–,–,–
"CC[C@H]1OC(=O)[C@H](C)[C@@H](O[C@H]2C[C@@](C)(OC)[C@](O)(CNCCN(C)C)[C@H](C)O2)[C@H](C)[C@@H](O[C@@H]2O[C@H](C)C[C@H](N(C)C(=O)N(C)c3ccccc3)[C@H]2O)[C@](C)(O)C[C@@H](C)CN[C@H](C)[C@@H](O)[C@]1(C)O [Example H-20, 1-((2S,3R,4S,6R)-2-(((2R,3S,4R,5R,8R,10R,11R,12S,13S,14R)-13-(((2R,4R,5S,6S)-5-(((2-(dimethylamino)ethyl)amino)methyl)-5-hydroxy-4-methoxy-4,6-dimethyltetrahydro-2H-pyran-2-yl)oxy)-2-ethyl-3,4,10-trihydroxy-3,5,8,10,12,14-hexamethyl-15-oxo-1-oxa-6-azacyclopentadecan-11-yl)oxy)-3-hydroxy-6-methyltetrahydro-2H-pyran-4-yl)-1,3-dimethyl-3-phenylurea]",31,6,> 500,–,–,–,–
